Data set [1] deals with sterol-24-methyl transferase (Candida albicans, UniProt O74198). The format is biochemical. The note with it: in vitro, read-out: Relative Activity (IC50 class). The text has this: Moreover, the relative activity for sterol-24-methyl transferase of the above compound in Table 11 is described in Table 13.
The subject of data set [2] is Candida albicans(KCTC 1940), Aspergillus niger (ATCC 9642) and Saccharomyces cerevisiae. The data set can be described thus: Relative antifungal activity by agar dilution method (vs Miconazole).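 Also: scores 5 to 7 mean a lower fungicidal concentration than Miconazole so higher is more potent.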 It is filed as cell-based. An excerpt:
Novel compounds represented by the above chemical formula (I), and the relative activities in accordance with the agar dilution method in Sabouraud dextrose agar media, Czapek agar media and Yeast Extract-Peptone-Dextrose agar media for Candida albicans(KCTC 1940), Aspergillus niger (ATCC 9642) and Saccharomyces cerevisiae are described respectively in following Table 1.
Background: In agar dilution the substance is mixed into plates at graded concentrations.

The next data set deals with various kinds of Candida. The data set can be described thus: MIC (Minimal Inhibitory Concentration) data. The note with it: unit assumed. It is filed as cell-based.
Data set [3] has as its system cultured lung cells derived from chinese hamster. Nature of the data set: Chromosome aberration test. The format is cell-based.
The nature of the next data set: Micronucleus test. The format is in vivo. The note with it: for Genetic toxicity Nucleus test: male ICR mice; for micronucleus test result: mouse, in vivo.
The nature of data set [4]: Oral toxicity test (general symptoms, weight change, lethal case). The format is in vivo, rats (SD). The note with it: for LD50: SD, rat, in vivo, 1000 mg/kg, rats, oral, read-out: Acute toxicity LD50; for general symptom / lethal case / weight change: oral, 1,000 mg/kg, suspended in propylene glycol, SD rats. As for the experimental part: Meanwhile, the toxicity test of the compound in table II of the present invention was performed using […]. The compound was suspended in propylene glycol. The resulting suspension was medicated respectively on 6 female rats and 5 male rats (SD) of which age are 5 weeks, via oral after 12 hours starvation. The general symptoms, weight change and lethal case of the above rats were investigated.
In cases of the tests of the compounds (Compound No. 12, 119, 134, 148, 150)(delivery of 1,000 mg/kg), the general symptom and weight change were normal and the lethal case was not observed.

Another data set concerns salmonella typhimurium. Nature of the data set: Bacterial reverse mutation test (Ames test). The format is cell-based. For orientation: In the Ames test, an excess of revertant colonies over the control signals mutagenicity.
[5] abbreviates: agar dilution method, fungicidal concentration relative to control drug Miconazole (=4).
Setting [6] is: antifungal activity relative to Miconazole, agar dilution.

Read-outs that look alike come from different tables or passages of the source. Where only a bound is given, the exact number is not on record here.

Sequence of sterol-24-methyl transferase (O74198 whole entry): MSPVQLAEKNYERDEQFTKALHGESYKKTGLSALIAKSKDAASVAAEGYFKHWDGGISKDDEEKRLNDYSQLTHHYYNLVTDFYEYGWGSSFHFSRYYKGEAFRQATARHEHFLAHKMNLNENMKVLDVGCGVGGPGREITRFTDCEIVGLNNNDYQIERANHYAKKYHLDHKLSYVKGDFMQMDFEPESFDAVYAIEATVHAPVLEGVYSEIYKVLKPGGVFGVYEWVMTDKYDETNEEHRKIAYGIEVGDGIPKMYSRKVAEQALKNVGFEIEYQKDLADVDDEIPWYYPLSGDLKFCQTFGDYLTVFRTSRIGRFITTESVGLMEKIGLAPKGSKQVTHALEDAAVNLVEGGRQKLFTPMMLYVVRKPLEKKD

For `CCCCCCCCCCCC1=[N+](Cc2ccc(C(C)(C)C)cc2)CCc2cc3c(cc21)oc(=O)n3C.[Br-]` [Compound No. 115, 7,8-dihydro-1-methyl-6-(4-t-butylphenyl)methyl-5-undecyloxazolo[4,5-g]isoquinolinium-2 (1H)-one bromide], the IC50 in data set [1] was 5 to 50 µM. In data set [2] (setting [5]), the “Relative Activity” value was determined as 2.

For the compound `CCCCCCCCCCCC1=[N+](c2ccc(C(C)(C)C)cc2)CCc2cc(CNC(=O)OCC)ccc21.[Br-]` [Compound No. 118, ethyl 3,4-dihydro-2-(4-t-butylphenyl)-1-undecylisoquinolinium-6-ylmethylcabamate bromide], the concentration for half-maximal inhibition (IC50) in data set [1] lay within 5 to 50 µM. In addition, in data set [2] (setting [5]), the “Relative Activity” value was 2.

On to `CCCCCCCCCCCC1=[N+](Cc2ccc(NC(=O)OC(C)(C)C)cc2)CCc2cc(OC)c(OC)cc21.[Cl-]` [Compound No. 120, 2-(4-t-butylalcoholcarbonylaminophenyl)methyl-3,4-dihydro-6,7-dimethoxy-1-undecylisoquinolinium chloride], for which the IC50 in data set [1] is under 5 µM. The MIC stood at 1.56 µg/mL with various kinds of Candida (C. albicans ATCC 11651); 1.56 µg/mL in the data set with various kinds of Candida (C. albicans ATCC 28838); 3.12 µg/mL against various kinds of Candida (C. albicans IFO 1385); 1.56 µg/mL against various kinds of Candida (C. albicans OY-003); 3.12 µg/mL with various kinds of Candida (C. albicans OY-019); 1.56 µg/mL against various kinds of Candida (C. albicans U.K). Further, the MIC with various kinds of Candida (C. glabrata) came to 6.25 µg/mL; in the data set on various kinds of Candida (C. glulliermondi), 3.12 µg/mL; against various kinds of Candida (C. krusei (KCTC7273)), 1.56 µg/mL; in the data set on various kinds of Candida (C. parapsilosis) it was 3.12 µg/mL.

In the case of `CCCCCCCCCCCC1=[N+](Cc2ccc(N)cc2)CCc2cc(OC)c(OC)cc21.Cl.[Cl-]` [Compound No. 121, 3,4-dihydro-6,7-dimethoxy-2-(4-ammoniumphenyl)methyl-1-undecylisoquinolinium dichloride], the IC50 in data set [1] fell in the range of 5 to 50 µM. Also, the “Relative Activity” value in data set [2] (setting [5]) was 2. Also, the MIC came to 3.12 µg/mL against various kinds of Candida (C. albicans ATCC 11651); 0.78 µg/mL in the data set with various kinds of Candida (C. albicans ATCC 28838); 1.56 µg/mL against various kinds of Candida (C. albicans IFO 1385); 3.12 µg/mL against various kinds of Candida (C. albicans OY-003); 3.12 µg/mL in the data set on various kinds of Candida (C. albicans OY-019); 3.12 µg/mL with various kinds of Candida (C. albicans U.K). For the same compound, the MIC is 1.56 µg/mL in the data set with various kinds of Candida (C. glabrata), 0.78 µg/mL against various kinds of Candida (C. glulliermondi), 1.56 µg/mL in the data set with various kinds of Candida (C. krusei (KCTC7273)) and 1.56 µg/mL against various kinds of Candida (C. parapsilosis).

Turning to `CCCCCCCCOc1c(C[n+]2ccc3cc(OC)c(OC)cc3c2CCc2ccc(C(C)(C)C)cc2)cccc1OC` [Compound No. 148, 1-(2-(4-t-butylphenyl))ethyl-2-(2-octyloxy)-3-dimethoxyphenyl)methyl-6,7-dimethoxyisoquinolinium chloride], the “Genetic toxicity Chromosome abmormality test” value in data set [3] was “negative”. Moreover, the “chromosome aberration test result” value in data set [3] was “negative”. The “Genetic toxicity Nucleus test” value in “Micronucleus test” was “negative”. Further, the micronucleus test result in the data set “Micronucleus test” is “negative”. Besides, the LD50 is over 1200 mg/kg in data set [4] (female) and over 1500 mg/kg in data set [4] (male). Further, in data set [4], the general symptom result was “normal”. Besides, the lethal case entry in data set [4] was “not observed”. In addition, the weight change entry in data set [4] was “normal”. The “Genetic toxicity AMES test” value in the data set with salmonella typhimurium is recorded as “negative”. In addition, the “bacterial reverse mutation test (Ames test) result” value in the data set on salmonella typhimurium was “negative”. Besides, in data set [2] (setting [6]), the “Relative Activity” value amounted to 1. In addition, the MIC against various kinds of Candida (C. albicans ATCC 11651), in the data set on various kinds of Candida (C. albicans ATCC 28838), against various kinds of Candida (C. albicans IFO 1385), with various kinds of Candida (C. albicans OY-003), in the data set on various kinds of Candida (C. albicans OY-019) and against various kinds of Candida (C. albicans U.K) was 1.56 µg/mL in each case. Besides, the MIC in the data set with various kinds of Candida (C. albicnas ATCC 10231) stood at 0.78 µg/mL; in the data set on various kinds of Candida (C. glabrata), 3.12 µg/mL; in the data set with various kinds of Candida (C. glulliermondi), 1.56 µg/mL; against various kinds of Candida (C. krusei (KCTC7273)), 1.56 µg/mL; with various kinds of Candida (C. parapsilosis), 3.12 µg/mL.

With `COc1cc2cc[n+](Cc3cccc(OC)c3OCc3c(F)cccc3Cl)c(CCc3ccc(C(C)(C)C)cc3)c2cc1OC` [Compound No. 150, 1-(2-(4-t-butylphenyl))ethyl-2-(2-(2-chloro-6-fluorobenzyloxy)-3-methoxyphenyl)methyl-6,7-dimethoxyisoquinolinium chloride], in data set [3], the “Genetic toxicity Chromosome abmormality test” value was “negative”. Further, the “chromosome aberration test result” value in data set [3] is recorded as “negative”. Besides, in “Micronucleus test”, the “Genetic toxicity Nucleus test” value is “negative”. In addition, the micronucleus test result in the data set “Micronucleus test” was “negative”. Further, the LD50 was over 1500 mg/kg in data set [4] (female) and over 2000 mg/kg in data set [4] (male). The general symptom result in data set [4] was “normal”. For the same compound, in data set [4], the lethal case result is “not observed”. The weight change entry in data set [4] is reported as “normal”. In the data set on salmonella typhimurium, the “Genetic toxicity AMES test” value is “negative”. Moreover, the “bacterial reverse mutation test (Ames test) result” value in the data set on salmonella typhimurium is “negative”. The “Relative Activity” value in data set [2] (setting [6]) came out at 1. Further, the MIC worked out at 1.56 µg/mL with various kinds of Candida (C. albicans ATCC 11651); 1.56 µg/mL against various kinds of Candida (C. albicans ATCC 28838); 6.25 µg/mL in the data set with various kinds of Candida (C. albicans IFO 1385); 0.78 µg/mL against various kinds of Candida (C. albicans OY-003); 1.56 µg/mL in the data set with various kinds of Candida (C. albicans OY-019); 0.78 µg/mL against various kinds of Candida (C. albicans U.K). Also, the MIC came to 12.5 µg/mL against various kinds of Candida (C. glabrata), 1.6 µg/mL against various kinds of Candida (C. glulliermondi), 1.56 µg/mL in the data set on various kinds of Candida (C. krusei (KCTC7273)) and 12.5 µg/mL in the data set with various kinds of Candida (C. parapsilosis).

For the compound `COc1cc2cc[n+](Cc3cccc(OC)c3OCc3c(F)c(F)c(C(F)(F)F)c(F)c3F)c(CCc3ccc(C(C)(C)C)cc3)c2cc1OC.[Cl-]` [Compound No. 151, 1-(2-(4-t-butylphenyl))ethyl-2-(2-(2,3,5,6-tetrafluoro-4-trifluoromethylbenzyloxy)-3-methoxyphenyl)methyl-6,7-dimethoxyisoquinolinium chloride], the IC50 in data set [1] is under 5 µM. Besides, the “Relative Activity” value in data set [2] (setting [6]) came out at 1. Besides, the MIC is 3.12 µg/mL in the data set on various kinds of Candida (C. albicans ATCC 11651); 3.12 µg/mL against various kinds of Candida (C. albicans ATCC 28838); 6.25 µg/mL with various kinds of Candida (C. albicans IFO 1385); 1.56 µg/mL against various kinds of Candida (C. albicans OY-003); 3.12 µg/mL against various kinds of Candida (C. albicans OY-019); 1.56 µg/mL in the data set with various kinds of Candida (C. albicans U.K). For the same compound, the MIC against various kinds of Candida (C. glabrata) is 3.25 µg/mL; against various kinds of Candida (C. glulliermondi) it was 1.56 µg/mL; against various kinds of Candida (C. krusei (KCTC7273)), 1.56 µg/mL; against various kinds of Candida (C. parapsilosis), 12.5 µg/mL.

In general, IC50 refers to the concentration at which inhibition is half-maximal. The MIC is the lowest concentration found to suppress growth. By LD50 is commonly meant the dose at which mortality reaches 50%.

These data come from patent US20090221829A1 (priority 2005, published 2009).
